# Assay results reported in US20250154173A1 (Merck Sharp & Dohme LLC, priority 2023, published 2025).
# Target: T1, GST-RIPK1 (recombinant GST-RIPK1 kinase domain (residues 1-327)) (Homo sapiens, UniProt Q13546)
# T1 construct: recombinant GST-RIPK1 kinase domain (residues 1-327) enzyme produced from baculovirus-transfected Sf21 cells; host or cells: baculovirus-transfected Sf21 insect cells
# T1 sequence (Q13546 1-327): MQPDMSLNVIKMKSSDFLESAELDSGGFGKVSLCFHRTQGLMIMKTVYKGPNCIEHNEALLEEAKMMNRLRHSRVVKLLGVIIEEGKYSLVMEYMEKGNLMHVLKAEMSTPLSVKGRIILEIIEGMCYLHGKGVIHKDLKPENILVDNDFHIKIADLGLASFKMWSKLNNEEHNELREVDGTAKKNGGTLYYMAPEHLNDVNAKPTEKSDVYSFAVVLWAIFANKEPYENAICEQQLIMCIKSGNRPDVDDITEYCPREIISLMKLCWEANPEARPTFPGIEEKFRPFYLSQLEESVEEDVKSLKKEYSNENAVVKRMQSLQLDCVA
# Assay: RIPK1-ADP-Glo Enzymatic Assay
# Type: biochemical
# Conditions: ten-point titration, top compound concentration of 100000 nM; 25 nM GST-RIPK1, 300 μM ATP, 3 μM dephosphorylated-MBP; 30 min pre-incubation, 150 min reaction
# In short: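 ADP-Glo luminescence quantifies ADP formed over 150 minutes by 25 nM Sf21-produced GST-RIPK1 (1-327) using 300 μM ATP and 3 μM dephosphorylated MBP, following 30-minute compound preincubation at 1% DMSO. Ten-point 1:3 series from 100000 nM gave EC50 via four-parameter sigmoidal regression.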
row,SMILES,EC50
1,"O=C1N2C(CC[C@H]2c2cnccn2)OC12CC(OCc1cccc(N3CCCC3)n1)C2 (stereo partly drawn) [Example 18.96, (5′S)-5′-(pyrazin-2-yl)-3-{[6-(pyrrolidin-1-yl)pyridin-2-yl]methoxy}tetrahydro-3′H-spiro[cyclobutane-1,2′-pyrrolo[2,1-b][1,3]oxazol]-3′-one]",225 nM
2,"O=C1N2C(CC[C@H]2c2cnccn2)OC12CC(OCc1ccc3nc(C(F)(F)F)sc3c1)C2 (stereo partly drawn) [Example 18.97, (5′S)-5′-(pyrazin-2-yl)-3-{[2-(trifluoromethyl)-1,3-benzothiazol-6-yl]methoxy}tetrahydro-3′H-spiro[cyclobutane-1,2′-pyrrolo[2,1-b][1,3]oxazol]-3′-one]",289 nM
3,"N#CCc1ncc(COC2CC3(C2)OC2CC[C@@H](c4cnccn4)N2C3=O)cc1Cl (stereo partly drawn) [Example 18.98, [3-chloro-5-({[(5′S)-3′-oxo-5′-(pyrazin-2-yl)tetrahydro-3′H-spiro[cyclobutane-1,2′-pyrrolo[2,1-b][1,3]oxazol]-3-yl]oxy}methyl)pyridin-2-yl]acetonitrile]",198 nM
4,"COCCOc1ccc(COC2CC3(C2)OC2CC[C@@H](c4cnccn4)N2C3=O)cc1 (stereo partly drawn) [Example 18.99, (5′S)-3-{[4-(2-methoxyethoxy)phenyl]methoxy}-5′-(pyrazin-2-yl)tetrahydro-3′H-spiro[cyclobutane-1,2′-pyrrolo[2,1-b][1,3]oxazol]-3′-one]",205 nM
5,"N#Cc1cccc(F)c1COC1CC2(C1)OC1CC[C@@H](c3cnccn3)N1C2=O (stereo partly drawn) [Example 18.100, 3-fluoro-2-({[(5′S)-3′-oxo-5′-(pyrazin-2-yl)tetrahydro-3′H-spiro[cyclobutane-1,2′-pyrrolo[2,1-b][1,3]oxazol]-3-yl]oxy}methyl)benzonitrile]",472 nM
6,O=C1N2C(CC[C@H]2c2cnccn2)OC12CC(OCc1cnn(-c3ccncc3)c1)C2 (stereo partly shown) [Example 18.101],367 nM
7,"O=C1N2C(CC[C@H]2c2cnccn2)OC12CC(OCc1ccccc1-n1cccn1)C2 (stereo partly drawn) [Example 18.102, (5′S)-5′-(pyrazin-2-yl)-3-{[2-(1H-pyrazol-1-yl)phenyl]methoxy}tetrahydro-3′H-spiro[cyclobutane-1,2′-pyrrolo[2,1-b][1,3]oxazol]-3′-one]",736 nM
8,O=C1N2C(CC[C@H]2c2cnccn2)OC12CC(OCc1ccc3nc(C(F)(F)F)cn3c1)C2 (stereo partly shown) [Example 18.103],607 nM
9,"N#Cc1ccoc1COC1CC2(C1)OC1CC[C@@H](c3cnccn3)N1C2=O (stereo partly drawn) [Example 18.104, 2-({[(5′S)-3′-oxo-5′-(pyrazin-2-yl)tetrahydro-3′H-spiro[cyclobutane-1,2′-pyrrolo[2,1-b][1,3]oxazol]-3-yl]oxy}methyl)furan-3-carbonitrile]",355 nM
10,"O=C1N2C(CC[C@H]2c2cnccn2)OC12CC(OCc1ccc(OC3CCOCC3)nc1)C2 (stereo partly drawn) [Example 18.106, (5′S)-3-({6-[(oxan-4-yl)oxy]pyridin-3-yl}methoxy)-5′-(pyrazin-2-yl)tetrahydro-3′H-spiro[cyclobutane-1,2′-pyrrolo[2,1-b][1,3]oxazol]-3′-one]",569 nM
11,"Cn1ccc([C@@H]2CC[C@H]3O[C@]4(C[C@@H](Oc5cccc(C#N)c5)C4)C(=O)N32)n1 [Example 19.6, 3-{[(1s,3S,5′S,7a′R)-5′-(1-methyl-1H-pyrazol-3-yl)-3′-oxotetrahydro-3′H-spiro[cyclobutane-1,2′-pyrrolo[2,1-b][1,3]oxazol]-3-yl]oxy}benzonitrile]",203 nM
12,"Cc1ccc(OC2CC3(C2)O[C@@H]2CC[C@@H](c4ccn(C)n4)N2C3=O)cn1 (stereo partly drawn) [Example 19.7, (5′S,7a′R)-5′-(1-methyl-1H-pyrazol-3-yl)-3-[(6-methylpyridin-3-yl)oxy]tetrahydro-3′H-spiro[cyclobutane-1,2′-pyrrolo[2,1-b][1,3]oxazol]-3′-one]",531 nM
13,"Cn1ccc([C@@H]2CC[C@H]3OC4(CC(Oc5cccnc5)C4)C(=O)N32)n1 (stereo partly drawn) [Example 19.8, (5′S,7a′R)-5′-(1-methyl-1H-pyrazol-3-yl)-3-[(pyridin-3-yl)oxy]tetrahydro-3′H-spiro[cyclobutane-1,2′-pyrrolo[2,1-b][1,3]oxazol]-3′-one]",474 nM
14,"Cn1ccc([C@@H]2CC[C@H]3OC4(CC(Oc5cncc(Cl)c5)C4)C(=O)N32)n1 (stereo partly drawn) [Example 19.9, (5′S,7a′R)-3-[(5-chloropyridin-3-yl)oxy]-5′-(1-methyl-1H-pyrazol-3-yl)tetrahydro-3′H-spiro[cyclobutane-1,2′-pyrrolo[2,1-b][1,3]oxazol]-3′-one]",397 nM
15,"Cn1ccc([C@@H]2CC[C@H]3OC4(CC(Oc5cccnc5)C4)C(=O)N32)n1 (stereo partly drawn) [Example 19.11, (5′S,7a′R)-5′-(1-methyl-1H-pyrazol-3-yl)-3-[(pyridin-3-yl)oxy]tetrahydro-3′H-spiro[cyclobutane-1,2′-pyrrolo[2,1-b][1,3]oxazol]-3′-one]",209 nM
16,"Cc1ccc(OC2CC3(C2)O[C@@H]2CC[C@@H](c4ccn(C)n4)N2C3=O)cn1 (stereo partly drawn) [Example 19.12, (5′S,7a′R)-5′-(1-methyl-1H-pyrazol-3-yl)-3-[(6-methylpyridin-3-yl)oxy]tetrahydro-3′H-spiro[cyclobutane-1,2′-pyrrolo[2,1-b][1,3]oxazol]-3′-one]",790 nM

# Stronger by EC50, values ahead:
row,EC50,SMILES
1,66 nM,"CCc1nnc(-c2ccc(COC3CC4(C3)OC3CC[C@@H](c5cnccn5)N3C4=O)cc2)o1 (stereo partly drawn) [Example 18.105, (5′S)-3-{[4-(5-ethyl-1,3,4-oxadiazol-2-yl)phenyl]methoxy}-5′-(pyrazin-2-yl)tetrahydro-3′H-spiro[cyclobutane-1,2′-pyrrolo[2,1-b][1,3]oxazol]-3′-one]"
2,34 nM,"O=C1N2C(CC[C@H]2c2cnccn2)OC12CC(OCc1cc3cncnc3s1)C2 (stereo partly drawn) [Example 18.107, (5′S)-5′-(pyrazin-2-yl)-3-(thieno[2,3-d]pyrimidin-6-ylmethoxy)tetrahydro-3′H-spiro[cyclobutane-1,2′-pyrrolo[2,1-b]oxazol]-3′-one]"
3,94 nM,"O=C1N2C(CC[C@H]2c2cnccn2)OC12CC(OCc1ccc3c(c1)CCO3)C2 (stereo partly drawn) [Example 18.108, (5′S)-3-((2,3-dihydrobenzofuran-5-yl)methoxy)-5′-(pyrazin-2-yl)tetrahydro-3′H-spiro[cyclobutane-1,2′-pyrrolo[2,1-b]oxazol]-3′-one]"
4,25 nM,"N#Cc1cccc(COC2CC3(C2)O[C@@H]2CC[C@@H](c4cnccn4)N2C3=O)c1 (stereo partly drawn) [Example 18.109, 3-((((5′S,7a′R)-3′-oxo-5′-(pyrazin-2-yl)tetrahydro-3′H-spiro[cyclobutane-1,2′-pyrrolo[2,1-b]oxazol]-3-yl)oxy)methyl)benzonitrile]"
5,44 nM,"O=C1N2[C@@H](CC[C@H]2c2cnccn2)OC12CC(OCc1ccc3cnoc3c1)C2 (stereo partly drawn) [Example 18.110, (5′S,7a′R)-3-(benzo[d]isoxazol-6-ylmethoxy)-5′-(pyrazin-2-yl)tetrahydro-3′H-spiro[cyclobutane-1,2′-pyrrolo [2,1-b]oxazol]-3′-one]"
6,31 nM,"O=C1N2[C@@H](CC[C@H]2c2cnccn2)O[C@]12C[C@@H](Oc1cccnc1)C2 [Example 19.1, (5′S,7a′R)-5′-(pyrazin-2-yl)-3-(pyridin-3-yloxy)tetrahydro-3′H-spiro[cyclobutane-1,2′-pyrrolo[2,1-b]oxazol]-3′-one]"
7,20 nM,"N#Cc1cccc(OC2CC3(C2)O[C@@H]2CC[C@@H](c4cnccn4)N2C3=O)c1 (stereo partly drawn) [Example 19.3, 3-{[(5′S,7a′R)-3′-oxo-5′-(pyrazin-2-yl)tetrahydro-3′H-spiro[cyclobutane-1,2′-pyrrolo[2,1-b][1,3]oxazol]-3-yl]oxy}benzonitrile]"
8,33 nM,"N#Cc1cc(F)cc(OC2CC3(C2)O[C@@H]2CC[C@@H](c4cnccn4)N2C3=O)c1 (stereo partly drawn) [Example 19.4, 3-fluoro-5-{[(5′S,7a′R)-3′-oxo-5′-(pyrazin-2-yl)tetrahydro-3′H-spiro[cyclobutane-1,2′-pyrrolo[2,1-b][1,3]oxazol]-3-yl]oxy}benzonitrile]"
9,11 nM,"O=C1N2[C@@H](CC[C@H]2c2cnccn2)OC12CC(Oc1ccc(F)c(F)c1)C2 (stereo partly drawn) [Example 19.5, (5′S,7a′R)-3-(3,4-difluorophenoxy)-5′-(pyrazin-2-yl)tetrahydro-3′H-spiro[cyclobutane-1,2′-pyrrolo[2,1-b][1,3]oxazol]-3′-one]"
10,30 nM,"Cn1ccc([C@@H]2CC[C@H]3OC4(CC(Oc5cccc(-c6ccnn6C)c5)C4)C(=O)N32)n1 (stereo partly drawn) [Example 19.10, (5′S,7a′R)-5′-(1-methyl-1H-pyrazol-3-yl)-3-[3-(1-methyl-1H-pyrazol-5-yl)phenoxy]tetrahydro-3′H-spiro[cyclobutane-1,2′-pyrrolo[2,1-b][1,3]oxazol]-3′-one]"
11,15 nM,"Cn1nccc1-c1cccc(OC2CC3(C2)O[C@@H]2CC[C@@H](c4cnccn4)N2C3=O)c1 (stereo partly drawn) [Example 19.13, (5′S,7a′R)-3-[3-(1-methyl-1H-pyrazol-5-yl)phenoxy]-5′-(pyrazin-2-yl)tetrahydro-3′H-spiro[cyclobutane-1,2′-pyrrolo[2,1-b][1,3]oxazol]-3′-one]"
12,16 nM,"Cn1nccc1-c1cccc(OC2CC3(C2)O[C@@H]2CC[C@@H](c4cnccn4)N2C3=O)c1 (stereo partly drawn) [Example 19.14, (5′S,7a′R)-3-[3-(1-methyl-1H-pyrazol-5-yl)phenoxy]-5′-(pyrazin-2-yl)tetrahydro-3′H-spiro[cyclobutane-1,2′-pyrrolo[2,1-b][1,3]oxazol]-3′-one]"
